According to BigSolDB 2.1:

CCc1ccc(CCOc2ccc(CC3SC(=O)NC3=O)cc2)nc1.Cl (stereo not drawn)
solubility (mole fraction)
Conditions | in DMF | in acetic acid | in ethanol | in methanol | in n-propanol
278.15 K | 0.0161 | – | 0.000535 | 0.004 | 0.000325
283.15 K | 0.017 | – | – | 0.00494 | 0.000395
284.15 K | – | – | 0.000626 | – | –
288.15 K | 0.0183 | 0.00108 | 0.000723 | 0.00615 | 0.000456
293.15 K | 0.0194 | 0.0015 | 0.000879 | 0.00738 | 0.000522
298.15 K | 0.021 | 0.00203 | 0.00103 | 0.0086 | 0.00063
303.15 K | 0.0227 | 0.00276 | 0.00121 | 0.0101 | 0.00075
308.15 K | 0.0247 | 0.0038 | 0.00147 | 0.0121 | 0.00088
313.15 K | 0.0269 | 0.00558 | 0.00178 | 0.0144 | 0.00104
318.15 K | 0.0292 | 0.00804 | 0.00222 | 0.0173 | 0.00127
323.15 K | 0.0323 | 0.0118 | 0.00266 | 0.0211 | 0.00149
